Laboratory results: patent US20240390295A1, “METHODS FOR TREATING DEPRESSION” (JANSSEN PHARMACEUTICA NV, priority 2020, published 2024)

Legend:
[1] = test system: adult patients (aged 18-64 years) with TRD; experiment: Measure-based increased blood pressure (abnormal elevation in BP); assay type: in vivo, human
Protocol: Vital signs, the Clinician-Administered Dissociative States Scale (CADSS), and the Modified Observer's Assessment of Alertness/Sedation (MOAA/S) were assessed at baseline and all treatment sessions (predose, and at 40 minutes, 1 hour [vital signs only unless spontaneously reported by the patient], and 1.5 hours postdose). Routine blood pressure (BP) readings were conducted at each treatment session, with elevations reported as AEs based on the clinician's judgement. The CADSS assessed treatment-emergent dissociative symptoms and consists of 23 questions, each coded on a 5-point scale (0=not at all, 1-mild, 2-moderate, 3=severe, 4-extreme), yielding a total score 0-92.11 A CADSS total score >4 indicated the presence of dissociative symptoms. The MOAA/S assessed treatment-emergent sedation: scores range from (=no response to painful stimulus to 5=readily responds to name spoken in normal tone. Any decrease in MOAA/s from pre-dose (score <5) indicated some degree of sedation. An abnormal elevation in BP was defined as systolic BP ≥180 mmHg and ≥20 mmHg higher than baseline and/or diastolic BP ≥105 mmHg and ≥15 mmHg greater than baseline.
This analysis included any treatment sessions in which patients received ESK (either open-label or blinded). The occurrence and severity of AEs were assessed within the following timeframes: Month 1 (Week 1 and Weeks 2-4), Month 2 (Weeks 5-8), Months 3-6 and Months 6-12. Severity of clinician-reported AEs were scored as 0 (no AE), 1 (mild), 2 (moderate), and 3 (severe). To examine AEs in individual patients over time, only patients who received at least one ESK dose in the following period were included in the analyses of each respective period. Thus, patient data were retained in (i) Week 1 if the patient received ≥1 ESK dose in Weeks 2-4, (ii) Weeks 2-4 if the patient received ≥1 ESK dose in Weeks 5-8, (iii) Weeks 5-8 if the patient received ≥1 ESK dose in Months 3-6, and (iv) Months 3-6 if the patient received ≥1 ESK dose in Months 6-12.

[2] = test system: adult patients (aged 18-64 years) with TRD; details: cited from earlier work

**Q.** With `CN[C@]1(c2ccccc2Cl)CCCCC1=O` [esketamine, (S)-2-(2-chlorophenyl)-2-(methylamino)cyclohexanone] as the compound, how does the “Measured-based increased blood pressure” value ([1]; Months 3-6, AE once in Week 1) read?
**A.** Its value is 6.3%.

**Q.** What about the “Measured-based increased blood pressure” value ([1]; Months 3-6, AE twice in Week 1) of the same compound?
**A.** The value was 33.3%.

**Q.** And the “Measured-based increased blood pressure” value ([1]; Months 3-6, No AE in Week 1)?
**A.** Its value is 2.4%.

**Q.** And the “Measured-based increased blood pressure” value ([1]; Months 3-6, overall rate for timeframe)?
**A.** Its value is 2.7%.

**Q.** And the “Measured-based increased blood pressure” value ([1]; Months 6-12, AE once in Week 1)?
**A.** The value was 6.3%.

**Q.** And the “Measured-based increased blood pressure” value ([1]; Months 6-12, AE twice in Week 1)?
**A.** The value was 0%.

**Q.** What about the “Measured-based increased blood pressure” value ([1]; Months 6-12, No AE in Week 1) of the same compound?
**A.** Its value is 3.1%.

**Q.** And the “Measured-based increased blood pressure” value ([1]; Months 6-12, overall rate for timeframe)?
**A.** Its value is 3.2%.

**Q.** What about the “Measured-based increased blood pressure” value ([1]; Week 1, overall rate for timeframe) of the same compound?
**A.** Its value is 3.6%.

**Q.** What about the “Measured-based increased blood pressure” value ([1]; Weeks 2-4, AE once in Week 1) of the same compound?
**A.** Its value is 35.7%.

**Q.** And the “Measured-based increased blood pressure” value ([1]; Weeks 2-4, AE twice in Week 1)?
**A.** Its value is 80.0%.

**Q.** And the “Measured-based increased blood pressure” value ([1]; Weeks 2-4, No AE in Week 1)?
**A.** The value was 3.4%.

**Q.** And the “Measured-based increased blood pressure” value ([1]; Weeks 2-4, overall rate for timeframe)?
**A.** The value was 4.7%.

**Q.** And the “Measured-based increased blood pressure” value ([1]; Weeks 5-8, AE once in Week 1)?
**A.** Its value is 17.9%.

**Q.** And the “Measured-based increased blood pressure” value ([1]; Weeks 5-8, AE twice in Week 1)?
**A.** Its value is 60.0%.

**Q.** What about the “Measured-based increased blood pressure” value ([1]; Weeks 5-8, No AE in Week 1) of the same compound?
**A.** The value was 2.6%.

**Q.** And the “Measured-based increased blood pressure” value ([1]; Weeks 5-8, overall rate for timeframe)?
**A.** The value was 3.4%.

**Q.** What about the “incidence of dissociation, dizziness, nausea, sedation, vertigo” value ([2]; ESK plus OAD therapy) of the same compound?
**A.** Its value is at least 5%.

**Q.** What about the “incidence relative to placebo plus an OAD” value ([2]; five most common treatment-emergent events) of the same compound?
**A.** Its value is at least 2 fold.
